Key:
iPS cell line (1231A3) [1] = experiment: Ratio of Corin-positive cells after induction of differentiation into neural cells of the midbrain floor plate region (cell sorter); assay type: cell-based, human; conditions: cell group A1: pretreatment with SAG 300 nM from Day -1 to Day 0; culture day 12 for the induction of differentiation
Experimental: (§1) An iPS cell line (formal name: 1231A3) as a line for research was used and cultured in a medium having composition given below. The medium was supplemented (with pretreatment) with SAG (N-Methyl-N′-(3-pyridinylbenzyl)-N′-(3-chlorobenzo[b]thiophene-2-carbonyl)-1,4-diaminocyclohexane, final concentration: 300 nM) for 1 day from 1 day before the start of differentiation culture (Day −1) to the start day of differentiation (Day 0) to establish a cell group having high induction efficiency (cell group A1). An untreated cell group (cell group A2) was also established for comparison by cell culture under the same conditions as in the cell group A1 except that the medium was not supplemented with SAG.
As for the medium in the culture experiment A, AK03N basal medium manufactured by Ajinomoto Co., Inc. was used before the start of differentiation, and GMEM containing 8% KSR was used as a basal medium at and after the start of differentiation (Day 0).
(§2) The pluripotent stem cells in each of six types of cell groups provided in the culture experiments A, B, and C were induced to differentiate into neural cells of the midbrain floor plate region in accordance with a predetermined protocol. […] The ratio of Corin-positive cells in each cell group was measured using a cell sorter (BD FACSJazz, BD Accuri or Furukawa PERFLOW Sort) on 12 days from the start of differentiation. […]

iPS cell line (1231A3) [2] = experiment: Concentration analysis of NT-3 in culture supernatant (Bioplex); assay type: cell-based, human; conditions: cell group A1 (SAG 300 nM pretreatment)
Experimental: as §1, §2

## CNC1CCC(N(Cc2cccc(-c3ccncc3)c2)C(=O)c2sc3ccccc3c2Cl)CC1 (stereo not drawn) [SAG, N-Methyl-N′-(3-pyridinylbenzyl)-N′-(3-chlorobenzo[b]thiophene-2-carbonyl)-1,4-diaminocyclohexane]
iPS cell line (1231A3) [1]
  ratio of Corin-positive cells: 90%
iPS cell line (1231A3) [2]; sample collected 3 days after the start of differentiation
  NT-3 in culture supernatant: specifically increased
iPS cell line (1231A3) [2]; samples collected 1 day and 5 days after the start of differentiation
  NT-3 in culture supernatant: not detected

From patent US20250145948A1, “METHOD FOR ASSESSING DIFFERENTIATION POTENTIAL OF CELLS IN CULTURE BROTH IN DIFFERENTIATION OF PLURIPOTENT STEM CELLS INTO NEURAL CELLS OF MIDBRAIN FLOOR PLATE REGION” (SUMITOMO PHARMA CO., LTD., priority 2022, published 2025)
